Source: US20050153872A1, “Methods and compositions for the treatment of infection” (priority 2004, published 2005)

What was measured:
[1] = tested on: ATCC 700671 PRSP (S. pneumoniae); assay: In vivo protection effects of Ph-SP; parameters: species or system mice; settings: 5 animals
Description: To assess the in vivo effect of Ph-SP, mice were injected with ATCC 700671 PRSP intraperitoneally, followed by intravenous injections of PH-SP or controls.
One hour after administration of the fatal dose of ATCC 700671 PRSP (10^5 CFU/ml), each mouse was injected through the tail vein with test agents at three dosages as described in Table 4.

[2] = tested on: S. aureus strain ATCC BAA-42 MRSA; settings: all agents 5 μg/ml

cephalomycin
Death distribution in hours 24 h ([1]; 5 mg/kg tail vein): 3 | Death distribution in hours 48 h ([1]; 5 mg/kg tail vein): 1 | Death distribution in hours 72 h ([1]; 5 mg/kg tail vein): 0 | Death distribution in hours 96 h ([1]; 5 mg/kg tail vein): 0 | Death distribution in hours 120 h ([1]; 5 mg/kg tail vein): 0 | Death distribution in hours 144 h ([1]; 5 mg/kg tail vein): 0 | Death distribution in hours 168 h ([1]; 5 mg/kg tail vein): 0 | Number of Death ([1]; 5 mg/kg tail vein): 4 | Death distribution in hours 24 h ([1]; 10 mg/kg tail vein): 2 | Death distribution in hours 48 h ([1]; 10 mg/kg tail vein): 1 | Death distribution in hours 72 h ([1]; 10 mg/kg tail vein): 0 | Death distribution in hours 96 h ([1]; 10 mg/kg tail vein): 0 | Death distribution in hours 120 h ([1]; 10 mg/kg tail vein): 0 | Death distribution in hours 144 h ([1]; 10 mg/kg tail vein): 0 | Death distribution in hours 168 h ([1]; 10 mg/kg tail vein): 0 | Number of Death ([1]; 10 mg/kg tail vein): 3

B1: Ph-SA2: Colicin Ia linked to the AgrDII pheromone of S. aureus (protein)
chain: SDPVRITNPGAESLGYDSDGHEIMAVDIYVNPPRVDVFHGTPPAWSSFGNKTIWGGNEWVDDSPTRSDIEKRDKEITAYKNTLSAQQKENENKRTEAGKRLSAAIAAREKDENTLKTLRAGNADAADITRQEFRLLQAELREYGFRTEIAGYDALRLHTESRMLFADADSLRISPREARSLIEQAEKRQKDAQNADKKAADMLAEYERRKGILDTRLSELEKNGGAALAVLDAQQARLLGQQTRNDRAISEARNKLSSVTESLNTARNALTRAEQQLTQQKNTPDGKTIVSPEKFPGRSSTNHSIVVSGDPRFAGTIKITTSAVIDNRANLNYLLSHSGLDYKRNILNDRNPVVTEDVEGDKKIYNAEVAEWDKLRQRLLDARNKITSAESAVNSARNNLSARTNEQKHANDALNALLKEKENIRNQLSGINQKIAEEKRKQDELKATKDAINFTTEFLKSVSEKYGAKAEQLAREMAGQAKGKKIRNVEEALKTYEKYRADINKKINAKDRAAIAAALESVKLSDISSNLNRFSRGLGYAGKFTSLADWITEFGKAVRTENWRPLFVKTETIIAGNAATALVALVFSILTGSALGIIGYGLLMAVTGALIDESLVEKANKFWGIGVNACSSLF
modifications: Colicin attached to Pheromone peptide encoding Staphylococcus aureus AgrDII
inhibition of growth [2]: some inhibition effects

B2: Ph-SAR1: the AgrDI pheromone of S. aureus linked to the N-terminus of Colicin Ia (protein)
chain: YSTCDFIMSDPVRITNPGAESLGYDSDGHEIMAVDIYVNPPRVDVFHGTPPAWSSFGNKTIWGGNEWVDDSPTRSDIEKRDKEITAYKNTLSAQQKENENKRTEAGKRLSAAIAAREKDENTLKTLRAGNADAADITRQEFRLLQAELREYGFRTEIAGYDALRLHTESRMLFADADSLRISPREARSLIEQAEKRQKDAQNADKKAADMLAEYERRKGILDTRLSELEKNGGAALAVLDAQQARLLGQQTRNDRAISEARNKLSSVTESLNTARNALTRAEQQLTQQKNTPDGKTIVSPEKFPGRSSTNHSIVVSGDPRFAGTIKITTSAVIDNRANLNYLLSHSGLDYKRNILNDRNPVVTEDVEGDKKIYNAEVAEWDKLRQRLLDARNKITSAESAVNSARNNLSARTNEQKHANDALNALLKEKENIRNQLSGINQKIAEEKRKQDELKATKDAINFTTEFLKSVSEKYGAKAEQLAREMAGQAKGKKIRNVEEALKTYEKYRADINKKINAKDRAAIAAALESVKLSDISSNLNRFSRGLGYAGKFTSLADWITEFGKAVRTENWRPLFVKTETIIAGNAATALVALVFSILTGSALGIIGYGLLMAVTGALIDESLVEKANKFWGI
modifications: Pheromone peptide from Staphylococcus aureus AgrDI attached to Colicin Ia
inhibition of growth [2]: did not inhibit the growth

B3: Ph-SE: Colicin Ia linked to the pheromone of S. epidermidis (protein)
chain: SDPVARGITNPGAESLGYDSDGHEIMAVASPIYVASNPPRVASPVFHGTPPAWSSFGNKTIWGGNEWVASPDSPTRSDIEKRDKEITAYKNTLSAQQKENENKRTEAGKRLSAAIAAREKDENTLKTLRAGNADAADITRQEFRLLQAELREYGFRTEIAGYDALRLHTESRMLFADADSLRISPREARSLIEQAEKRQKDAQNADKKAADMLAEYERRKGILDTRLSELEKNGGAALAVLDAQQARLLGQQTRNDRAISEARNKLSSVTESLNTARNALTRAEQQLTQQKNTPDGKTIVSPEKFPGRSSTNHSIVVSGDPRFAGTIKITTSAVIDNRANLNYLLSHSGLDYKRNILNDRNPVVTEDVEGDKKIYNAEVALAEWDKLRQRLLDARNKITSAESAVASNSARNNLSARTNEQKHANDALNALLKEKENIRNQLSGINQKIAEEKRKQDELKATKDAINFTTEFLKSVSEKYGAKAEQLAREMAGQAKGKKIRNVEEALKTYEKYRADINKKINAKDRAAIAAALESVKLSDISSNLNRFSRGLGYAGKFTSLADWITEFGKAVARGTENWRPLFVKTETIIAGNAATALVALALVFSILTGSALGIIGYGLLMAVTGALIDESLVEKANKFWGIDSVCASYF
modifications: Colicin Ia attached to Pheromone peptide from Staphylococcus epidermidis
inhibition of growth [2]: better effects

B4: Ph-SA4: Colicin Ia linked to the AgrDIV pheromone of S. aureus (protein)
chain: SDPVRITNPGAESLGYDSDGHEIMAVDIYVNPPRVDVFHGTPPAWSSFGNKTIWGGNEWVDDSPTRSDIEKRDKEITAYKNTLSAQQKENENKRTEAGKRLSAAIAAREKDENTLKTLRAGNADAADITRQEFRLLQAELREYGFRTEIAGYDALRLHTESRMLFADADSLRISPREARSLIEQAEKRQKDAQNADKKAADMLAEYERRKGILDTRLSELEKNGGAALAVLDAQQARLLGQQTRNDRAISEARNKLSSVTESLNTARNALTRAEQQLTQQKNTPDGKTIVSPEKFPGRSSTNHSIVVSGDPRFAGTIKITTSAVIDNRANLNYLLSHSGLDYKRNILNDRNPVVTEDVEGDKKIYNAEVAEWDKLRQRLLDARNKITSAESAVNSARNNLSARTNEQKHANDALNALLKEKENIRNQLSGINQKIAEEKRKQDELKATKDAINFTTEFLKSVSEKYGAKAEQLAREMAGQAKGKKIRNVEEALKTYEKYRADINKKINAKDRAAIAAALESVKLSDISSNLNRFSRGLGYAGKFTSLADWITEFGKAVRTENWRPLFVKTETIIAGNAATALVALVFSILTGSALGIIGYGLLMAVTGALIDESLVEKANKFWGIYSTCYFIM
modifications: Colicin attached to Pheromone peptide encoding Staphylococcus aureus AgrDIV
inhibition of growth [2]: best inhibitory effects

B5: Ph-SA3: Colicin Ia linked to the AgrDIII pheromone of S. aureus (protein)
chain: SDPVRITNPGAESLGYDSDGHEIMAVDIYVNPPRVDVFHGTPPAWSSFGNKTIWGGNEWVDDSPTRSDIEKRDKEITAYKNTLSAQQKENENKRTEAGKRLSAAIAAREKDENTLKTLRAGNADAADITRQEFRLLQAELREYGFRTEIAGYDALRLHTESRMLFADADSLRISPREARSLIEQAEKRQKDAQNADKKAADMLAEYERRKGILDTRLSELEKNGGAALAVLDAQQARLLGQQTRNDRAISEARNKLSSVTESLNTARNALTRAEQQLTQQKNTPDGKTIVSPEKFPGRSSTNHSIVVSGDPRFAGTIKITTSAVIDNRANLNYLLSHSGLDYKRNILNDRNPVVTEDVEGDKKIYNAEVAEWDKLRQRLLDARNKITSAESAVNSARNNLSARTNEQKHANDALNALLKEKENIRNQLSGINQKIAEEKRKQDELKATKDAINFTTEFLKSVSEKYGAKAEQLAREMAGQAKGKKIRNVEEALKTYEKYRADINKKINAKDRAAIAAALESVKLSDISSNLNRFSRGLGYAGKFTSLADWITEFGKAVRTENWRPLFVKTETIIAGNAATALVALVFSILTGSALGIIGYGLLMAVTGALIDESLVEKANKFWGIYINCDFLL
modifications: Colicin attached to Pheromone peptide encoding Staphylococcus aureus AgrDIII
inhibition of growth [2]: some inhibition effects
